Where two headings read alike, the source gives them in different places. Each block holds one molecule with its values, some of them ahead of it. Square brackets hold non-standard residues; d marks the D form. Ends that are not written are not given here. Peptide text beside a SMILES is read from it. Aad = N[C@@H](CCCC(=O)O)C(=O)O; Sec = N[C@@H](C[SeH])C(=O)O; Orn = NCCC[C@H](N)C(=O)O
Assays:
human JMJD7 [1] = target: T1, human JMJD7 (Homo sapiens, UniProt P0C870); assay: LC-MS assay of JMJD7-catalyzed hydroxylation/oxidation of DRG1 peptides; assay type: biochemical; conditions: 10 μM FAS, 100 μM LAA
T1 construct: human JMJD7 (residues 1–316) with an N‐terminal His6‐tag; His6 (N); made in house; host or cells: Escherichia coli Rosetta (DE3)
T1 sequence (P0C870 whole entry, the tested form may be a part): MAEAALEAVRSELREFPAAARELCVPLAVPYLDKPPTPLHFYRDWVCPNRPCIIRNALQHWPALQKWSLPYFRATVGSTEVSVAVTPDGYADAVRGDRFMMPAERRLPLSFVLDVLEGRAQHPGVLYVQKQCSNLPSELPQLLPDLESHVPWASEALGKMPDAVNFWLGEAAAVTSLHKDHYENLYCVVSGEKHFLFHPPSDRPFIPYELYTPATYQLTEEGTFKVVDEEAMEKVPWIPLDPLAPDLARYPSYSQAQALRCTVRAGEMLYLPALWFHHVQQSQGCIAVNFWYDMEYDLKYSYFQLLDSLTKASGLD
Procedure: Initial assays were carried out by incubation of purified recombinant (Markolovic et al., [2018]) human JMJD7 (2 μM) in the presence of a DRG1 derived peptide (10 μM), 2OG (10 μM), ferrous ammonium sulfate (FAS, 10 μM), and L‐ascorbate (LAA, 100 μM) in Tris buffer at pH 7.5 for 2 h at room temperature. Potential conversion to a hydroxylated product (+16 Da mass shift) was monitored by liquid‐chromatography‐mass‐spectrometry (LC–MS). […] The assay results also implied that DRG1‐Orn was hydroxylated, but to a lower extent (~21%) than DRG1‐Lys. […] The alcohol‐containing peptide hydroxynorleucine (DRG1‐HNle), was hydroxylated at relatively low levels (~24%), implying that H‐bonding interactions and positive charge of the N^ɛ‐amino group of lysine are important for efficient binding and catalysis, but that a neutral alcohol can still be accommodated at the active site (Figure 3f) (Markolovic et al., [2018]).
All reagents were procured from Sigma Aldrich. 2‐Oxoglutarate (2OG, 10 mM) and L‐ascorbic acid (LAA, 50 mM) solutions were prepared freshly by dissolving the solids in deionized water. Ferrous ammonium sulfate (FAS) solution was prepared freshly by dissolving FAS at 400 mM in 20 mM HCl with subsequent dilution to 1 mM using deionized water. JMJD7 assays using DRG1 (16–40) based peptides were performed with the following conditions: (i) 2 or 5 μM JMJD7, 10 μM DRG1 peptide, 100 μM LAA, 10 μM FAS, 10 μM 2OG in mM 50 Tris‐buffer (pH 7.5), (ii) 2 μM JMJD7, 10 μM DRG1 peptide, 100 μM LAA, 10 μM FAS, 20 μM 2OG in mM 50 Tris‐buffer (pH 7.5). Reactions were initiated by addition of enzyme to the cosubstrate/substrate solution in a final reaction volume of 50 μL with 2 h incubation at room temperature. A positive control reaction containing enzyme and a validated peptide substrate was included in all screening studies. After 2 h, reactions were stopped by addition of 5 μL of 10% (v/v) LC–MS grade formic acid (Fisher Scientific) and transferred to a 96 well plate (Agilent). Intact mass peptide analysis was performed by LC–MS using an Agilent 1290 infinity II LC system equipped with an Agilent 1290 multisampler and an Agilent 1290 high speed pump and connected to an Agilent 6550 accurate mass iFunnel quadrupole time of flight (Q‐TOF) mass spectrometer. The reaction mixture (4 μL) was injected and loaded onto a ZORBAX RRHD Eclipse Plus C18 column (Agilent). Solvent A consisted of LC–MS grade water containing 0.1% (v/v) formic acid and solvent B consisted of MeCN containing 0.1% (v/v) formic acid. Peptides were separated using a step wise gradient (0 min – 95% solvent A, 1.0 min – 80% solvent A, 3.0 min – 45% solvent A, 4.0 min – 45% solvent A, 5.0 min – 0% solvent A, 6.0 min – 0% solvent A, 7.0 min – 95% solvent A). This was followed by a 3 min elution with 95% solvent A to re‐equilibrate the column. Flow rates were 0.2 mL/min. The mass spectrometer was operated in the positive ion mode with a drying gas temperature (280°C), drying gas flow rate (13 L min^−1), nebulizer pressure (40 psig), sheath gas temperature (350°C), sheath gas flow rate (12 L min^−1), capillary voltage (4000 V), nozzle voltage (1000 V). Data were analyzed using Agilent MassHunter Qualitative Analysis (Version B.07.00) software.

human JMJD7 [2] = target: T1, human JMJD7; assay: MALDI-TOF MS JMJD7 inhibition assay; assay type: biochemical
Procedure: Due to signal overlaps between some DRG1 peptides and the reference DRG1‐Lys substrate, we synthesized a shorter reference substrate peptide (DRG1‐Lys, residues 17–40) for use in the MS‐based inhibition assays. Synthetic DRG1 peptides (residues 16–40, 10 or 50 μM) were preincubated with JMJD7 (200 nM) for 15 min, after which time the DRG1‐Lys substrate (residues 17–40, 5 μM), 2OG (10 μM), FAS […] and LAA […] were added, and the reaction were carried out for 25 min at room temperature. Most of the DRG1 peptides were not active as JMJD7 inhibitors at 10 μM (residual activity of JMJD7 >50%) (Figure S41a,b), with exceptions including the DRG1‐Orn, DRG1‐hGln and DRG1‐4pyrA peptides.
Single point screening assays were as follows; initially, JMJD7 (200 nM) and substituted DRG1 peptide (10 or 50 μM) were incubated for 15 min, followed by the addition of a mixture of the DRG1‐Lys substrate (5 μM), 2OG (10 μM), FAS (10 μM) and LAA (100 μM) in a final volume of 50 μL in Tris‐buffer (pH 7.5) and incubated for additional 25 min at room temperature. […] Reactions were quenched by the addition of 10% (v/v) formic acid and mixed 1:1 with CHCCA matrix (1:1 v/v MeCN:H2O) then analyzed by MALDI‐TIMS‐TOF MS. JMJD7 activity was determined by calculating the integral of hydroxylated peptide and normalized to a control reaction in absence of potential inhibitory peptides. Every experiment was performed in duplicate (n = 2), error bars are reported as SE.

human JMJD7 [3] = target: T1, human JMJD7; assay: MALDI-TOF MS JMJD7 inhibition assay; assay type: biochemical; remark: listed apart in the source
human JMJD7 [4] = target: T1, human JMJD7; assay: Q-TOF-MS protein-observed analysis of intact JMJD7 (adduct formation); assay type: binding; conditions: 2 μM JMJD7, 20 μM peptide; for JMJD7-peptide adduct formation: Q-TOF-MS of intact protein
Procedure: To investigate inhibition by the DRG1‐Cys/Sec peptides, we performed protein‐observed analysis of JMJD7 (2 μM) in the presence of the DRG1‐Cys/Sec peptides (20 μM) under likely non‐denaturing conditions (Figure 7g). The observed masses correspond to the JMJD7‐DRG1‐Cys (40.79 kDa) and JMJD7‐DRG1‐Sec (40.84 kDa) adducts, implying that DRG1‐Cys/Sec might inhibit JMJD7 via formation of S‐S/Se‐S bonds, plausibly with Cys132, though further work is required to validate this (Figure 7g).

[5] = target: human Jumonji-C (JmjC) domain-containing protein 7 (JMJD7), residues 1-316 (human) (UniProt P0C870)
Sequence of human Jumonji-C (JmjC) domain-containing protein 7 (JMJD7), residues 1-316 (human) (P0C870 whole entry, the tested form may be a part): as above

[6] = target: human Jumonji-C (JmjC) domain-containing protein 7 (JMJD7), residues 1-316 (human) (UniProt P0C870); remark: listed apart in the source
[7] = target: human Jumonji-C (JmjC) domain-containing protein 7 (JMJD7), residues 1-316 (human) (UniProt P0C870); remark: listed apart in the source
[8] = 200 nM JMJD7 preincubated 15 min with peptide (1 nM–150 μM), 5 μM DRG1-Lys (17–40) substrate, 10 μM 2OG, 25 min, room temperature, Tris pH 7.5, MALDI MS, duplicate (n = 2), ± SE, read-out: IC50 (JMJD7 inhibition, with 15 min preincubation)
[9] = same assay conditions but without preincubation, read-out: IC50 (JMJD7 inhibition, without preincubation)

Molecule: ARTQKNSerATAHHLGLLKARLAKLRR [DRG1‐Ser, 25-mer DRG1 (16–40) peptide with Ser at position 22]
degree of oxidation (+16 Da) of cysteine/methionine analog peptides by JMJD7 (human JMJD7 [1]; 2 μM JMJD7, 10 μM peptide, 10 μM 2OG): did also not undergo oxidation
JMJD7-peptide adduct formation (human JMJD7 [4]): Adduct formation was not observed

Molecule: DRG1-4pyrA peptide (DRG1 residues 16-40, 4pyrA in place of Lys22)
IC50 of inhibition of JMJD7-catalysed (200 nM) hydroxylation of the DRG1-Lys substrate (residues 17-40, 5 μM), MALDI-TOF MS, 15 min preincubation [5]: 15.2 µM

Molecule: DRG1-LysE peptide (DRG1 residues 16-40, (E)-dehydrolysine in place of Lys22)
Km of JMJD7-catalysed hydroxylation, steady-state kinetics by SPE-MS (0.1-5.0 μM peptide, 100 nM JMJD7) [7]: 3.1 µM

Molecule: DRG1-Orn peptide (DRG1 residues 16-40, Orn in place of Lys22)
IC50 of inhibition of JMJD7-catalysed (200 nM) hydroxylation of the DRG1-Lys substrate (residues 17-40, 5 μM), MALDI-TOF MS, 15 min preincubation [5]: 14 µM

Molecule: ARTQKNKATAHHLGLLKARLAKLRR-NH2 [DRG1-Lys substrate peptide (DRG1 residues 16-40)]
Km of JMJD7-catalysed hydroxylation, steady-state kinetics by SPE-MS (0.1-5.0 μM peptide, 100 nM JMJD7) [7]: 1.4 µM

Results, then the molecule that gave them:

extent of hydroxylation by JMJD7 at higher 2OG concentration (human JMJD7 [1]; 2 μM JMJD7, 10 μM peptide, 20 μM 2OG, pH 7.5, 2 h incubation): ~ 31%
extent of hydroxylation (+16 Da) by JMJD7 (human JMJD7 [1]; standard conditions: 2 μM JMJD7, 10 μM DRG1 peptide, 10 μM 2OG, Tris pH 7.5, 2 h, room temperature): ~ 21%
single point inhibition of JMJD7 at 50 μM peptide (human JMJD7 [2]; 50 μM DRG1 peptide, 200 nM JMJD7, 15 min preincubation, 5 μM DRG1-Lys substrate): clear inhibition
IC50 (human JMJD7 [3]; [8]): 14 µM
Molecule: CC(C)C[C@H](NC(=O)CNC(=O)[C@H](CC(C)C)NC(=O)[C@H](Cc1c[nH]cn1)NC(=O)[C@H](Cc1c[nH]cn1)NC(=O)[C@H](C)NC(=O)[C@@H](NC(=O)[C@H](C)NC(=O)[C@H](CCCN)NC(=O)[C@H](CC(N)=O)NC(=O)[C@H](CCCCN)NC(=O)[C@H](CCC(N)=O)NC(=O)[C@@H](NC(=O)[C@H](CCCNC(=N)N)NC(=O)[C@H](C)N)[C@@H](C)O)[C@@H](C)O)C(=O)N[C@@H](CC(C)C)C(=O)N[C@@H](CCCCN)C(=O)N[C@@H](C)C(=O)N[C@@H](CCCNC(=N)N)C(=O)N[C@@H](CC(C)C)C(=O)N[C@@H](C)C(=O)N[C@@H](CCCCN)C(=O)N[C@@H](CC(C)C)C(=O)N[C@@H](CCCNC(=N)N)C(=O)N[C@@H](CCCNC(=N)N)C(N)=O [DRG1‐Orn] (H-ARTQKN[Orn]ATAHHLGLLKARLAKLRR-NH2)

IC50 (human JMJD7 [3]; [8]): 1.46 µM
IC50 (human JMJD7 [3]; [9]): 2.8 µM
Molecule: CC(C)C[C@H](NC(=O)CNC(=O)[C@H](CC(C)C)NC(=O)[C@H](Cc1c[nH]cn1)NC(=O)[C@H](Cc1c[nH]cn1)NC(=O)[C@H](C)NC(=O)[C@@H](NC(=O)[C@H](C)NC(=O)[C@H](C[SeH])NC(=O)[C@H](CC(N)=O)NC(=O)[C@H](CCCCN)NC(=O)[C@H](CCC(N)=O)NC(=O)[C@@H](NC(=O)[C@H](CCCNC(=N)N)NC(=O)[C@H](C)N)[C@@H](C)O)[C@@H](C)O)C(=O)N[C@@H](CC(C)C)C(=O)N[C@@H](CCCCN)C(=O)N[C@@H](C)C(=O)N[C@@H](CCCNC(=N)N)C(=O)N[C@@H](CC(C)C)C(=O)N[C@@H](C)C(=O)N[C@@H](CCCCN)C(=O)N[C@@H](CC(C)C)C(=O)N[C@@H](CCCNC(=N)N)C(=O)N[C@@H](CCCNC(=N)N)C(N)=O [DRG1‐Sec] (H-ARTQKN[Sec]ATAHHLGLLKARLAKLRR-NH2)

IC50 (human JMJD7 [3]; [8]): 7.68 µM
Molecule: CC(C)C[C@H](NC(=O)CNC(=O)[C@H](CC(C)C)NC(=O)[C@H](Cc1c[nH]cn1)NC(=O)[C@H](Cc1c[nH]cn1)NC(=O)[C@H](C)NC(=O)[C@@H](NC(=O)[C@H](C)NC(=O)[C@H](CCCC(N)=O)NC(=O)[C@H](CC(N)=O)NC(=O)[C@H](CCCCN)NC(=O)[C@H](CCC(N)=O)NC(=O)[C@@H](NC(=O)[C@H](CCCNC(=N)N)NC(=O)[C@H](C)N)[C@@H](C)O)[C@@H](C)O)C(=O)N[C@@H](CC(C)C)C(=O)N[C@@H](CCCCN)C(=O)N[C@@H](C)C(=O)N[C@@H](CCCNC(=N)N)C(=O)N[C@@H](CC(C)C)C(=O)N[C@@H](C)C(=O)N[C@@H](CCCCN)C(=O)N[C@@H](CC(C)C)C(=O)N[C@@H](CCCNC(=N)N)C(=O)N[C@@H](CCCNC(=N)N)C(N)=O [DRG1‐hGln] (H-ARTQKN[Aad](NH2)ATAHHLGLLKARLAKLRR-NH2)

single point inhibition of JMJD7 under reducing conditions (human JMJD7 [2]; 10 and 50 μM peptide, DTT or TCEP (1 mM) as reductant in the reaction buffer): lack inhibitory activity
JMJD7-peptide cross-linking in the presence of DTT (human JMJD7 [4]; DTT in the buffer, Q-TOF-MS): no cross‐linking is observed
JMJD7-peptide adduct formation (human JMJD7 [4]): observed in lower extent at 1 min
IC50 (human JMJD7 [3]; [8]): 1.25 µM
IC50 (human JMJD7 [3]; [9]): 16 µM
Molecule: ARTQKNCATAHHLGLLKARLAKLRR-NH2 [DRG1‐Cys]

IC50 of inhibition of JMJD7-catalysed hydroxylation of the DRG1-Lys substrate, MALDI-TOF MS, 15 min preincubation [6]: 1.25 µM
IC50 of inhibition of JMJD7-catalysed hydroxylation of the DRG1-Lys substrate, MALDI-TOF MS, without preincubation [6]: 16 µM
Molecule: DRG1-Cys peptide (DRG1 residues 16-40, Cys in place of Lys22)

IC50 of inhibition of JMJD7-catalysed hydroxylation of the DRG1-Lys substrate, MALDI-TOF MS, 15 min preincubation [6]: 1.46 µM
IC50 of inhibition of JMJD7-catalysed hydroxylation of the DRG1-Lys substrate, MALDI-TOF MS, without preincubation [6]: 2.8 µM
Molecule: DRG1-Sec peptide (DRG1 residues 16-40, selenocysteine in place of Lys22)

IC50 of inhibition of JMJD7-catalysed (200 nM) hydroxylation of the DRG1-Lys substrate (residues 17-40, 5 μM), MALDI-TOF MS, 15 min preincubation [5]: 7.68 µM
Molecule: DRG1-hGln peptide (DRG1 residues 16-40, hGln in place of Lys22)

inhibition of JMJD7 by the shorter peptide fragment (human JMJD7 [2]; standard conditions): No inhibition
Molecule: DRG1‐Cys (residues 19–25): shorter peptide fragment DRG1-Cys (residues 19–25) (QKNCATA-NH2)
